Test results: PubChem BioAssay (NCI)
Values joined by “and” are separate entries in the source; they are usually repeats but may differ in a detail not shown here. Identical values can stand only once.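 Interpolation was linear, between the two tested concentrations surrounding the appropriate level; five concentrations were tested over 48 hours in 96-well plates. Here, GI50 denotes the concentration required for 50% inhibition of growth. At the TGI there is no net growth.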

Columns and labels:
Experiment in all cases: NCI-60 cell line screen, 48 h
RXF 393 renal = test system: RXF 393 renal
SK-MEL-2 melanoma = test system: SK-MEL-2 melanoma
HOP-62 NSCLC = test system: HOP-62 NSCLC
MCF7 breast = test system: MCF7 breast
HCT-15 colon = test system: HCT-15 colon
SNB-75 CNS = test system: SNB-75 CNS
K-562 leukemia = test system: K-562 leukemia
RPMI-8226 leukemia = test system: RPMI-8226 leukemia
COLO 205 colon = test system: COLO 205 colon
SR leukemia = test system: SR leukemia

O=[N+]([O-])c1cccc2nc3ccccc3c(NCCNCCO)c12
TGI (RXF 393 renal): 0.0205 µM | TGI (SK-MEL-2 melanoma): 0.00744 µM | TGI (HOP-62 NSCLC): 0.0799 µM and 0.0174 µM | TGI (MCF7 breast): 0.0373 µM and 0.0177 µM | TGI (HCT-15 colon): > 100 µM | GI50 (SNB-75 CNS): 0.0132 µM | TGI (SNB-75 CNS): 0.0565 µM and 0.0397 µM | TGI (K-562 leukemia): 0.0448 µM | TGI (RPMI-8226 leukemia): 0.0602 µM and 0.0646 µM | TGI (COLO 205 colon): 0.0106 µM and 0.0213 µM

COC(=O)[C@H]1ON2O[C@@H](O[C@H]3CCCC[C@@H]3C(C)(C)c3ccccc3)C[C@@H]3CC[C@H]1[C@@]32C
TGI (RXF 393 renal): > 100 µM | TGI (SR leukemia): > 100 µM | TGI (HOP-62 NSCLC): > 100 µM | TGI (MCF7 breast): > 100 µM | TGI (HCT-15 colon): > 100 µM | TGI (SNB-75 CNS): > 100 µM | TGI (K-562 leukemia): > 100 µM | TGI (RPMI-8226 leukemia): > 100 µM | TGI (COLO 205 colon): > 100 µM

COc1ccc(S(=O)Cc2cc(OC)ccc2OC)cc1 (stereo unspecified)
TGI (RXF 393 renal): > 100 µM | TGI (HOP-62 NSCLC): > 100 µM | TGI (MCF7 breast): > 100 µM | TGI (HCT-15 colon): > 100 µM | TGI (SNB-75 CNS): > 100 µM | TGI (K-562 leukemia): > 100 µM | TGI (COLO 205 colon): > 100 µM

CCCCCC(/C=N/NC(N)=S)C(O)(C(F)(F)F)C(F)(F)F (stereo unspecified)
TGI (RXF 393 renal): > 10 µM | TGI (SK-MEL-2 melanoma): > 10 µM | TGI (SR leukemia): > 10 µM | TGI (HOP-62 NSCLC): > 10 µM | TGI (MCF7 breast): > 10 µM | TGI (HCT-15 colon): > 10 µM | TGI (SNB-75 CNS): > 10 µM | TGI (K-562 leukemia): > 10 µM | TGI (COLO 205 colon): > 10 µM

CSCCCNC(=O)c1csc([C@@H](CSC)NC(=O)CCNC(=O)[C@@H](NC(=O)OCC(Br)(Br)Br)C(C)O)n1 (stereo partly specified)
TGI (RXF 393 renal): > 100 µM | TGI (SK-MEL-2 melanoma): > 100 µM | TGI (SR leukemia): > 100 µM | TGI (HOP-62 NSCLC): > 100 µM | TGI (MCF7 breast): > 100 µM | TGI (HCT-15 colon): > 100 µM | TGI (SNB-75 CNS): > 100 µM | TGI (K-562 leukemia): > 100 µM | TGI (COLO 205 colon): > 100 µM

C/C(=N/NC(=S)N(Cc1ccccn1)Cc1ccccn1)c1cnccn1
TGI (RXF 393 renal): 17.4 µM | TGI (SK-MEL-2 melanoma): 26 µM | TGI (SR leukemia): > 55.2 µM | TGI (HOP-62 NSCLC): 14.6 µM | TGI (MCF7 breast): > 100 µM | TGI (HCT-15 colon): 87.1 µM | TGI (SNB-75 CNS): 17.2 µM | TGI (K-562 leukemia): > 100 µM | TGI (RPMI-8226 leukemia): > 37.4 µM

c1ccc(-c2cc(-c3cc(-c4ccccc4)n[nH]3)[nH]n2)cc1
TGI (RXF 393 renal): > 100 µM | TGI (SK-MEL-2 melanoma): > 100 µM | TGI (SR leukemia): > 100 µM | TGI (HOP-62 NSCLC): > 100 µM | TGI (MCF7 breast): > 100 µM | TGI (HCT-15 colon): > 100 µM | TGI (SNB-75 CNS): > 100 µM | TGI (K-562 leukemia): > 100 µM | TGI (COLO 205 colon): > 100 µM

COc1ccc(/C=N/n2c(C)n[nH]c2=O)cc1
TGI (SK-MEL-2 melanoma): > 100 µM | TGI (HOP-62 NSCLC): > 100 µM | TGI (MCF7 breast): > 100 µM | TGI (HCT-15 colon): > 100 µM | TGI (SNB-75 CNS): > 100 µM | TGI (K-562 leukemia): > 100 µM | TGI (RPMI-8226 leukemia): > 100 µM | TGI (COLO 205 colon): > 100 µM

O=C(c1ccc(Cl)cc1)N(C(=S)N1CCN(c2ccccc2)CC1)c1ccccc1
TGI (RXF 393 renal): > 100 µM | TGI (SK-MEL-2 melanoma): > 100 µM | TGI (SR leukemia): > 100 µM | TGI (HOP-62 NSCLC): > 100 µM | TGI (HCT-15 colon): > 100 µM | TGI (SNB-75 CNS): > 100 µM | TGI (K-562 leukemia): > 100 µM | TGI (RPMI-8226 leukemia): > 100 µM | TGI (COLO 205 colon): > 100 µM

NNC(=O)CCCCCCCC(=O)O
TGI (SK-MEL-2 melanoma): > 100 µM | TGI (SR leukemia): > 100 µM | TGI (HOP-62 NSCLC): > 100 µM | TGI (MCF7 breast): > 100 µM | TGI (HCT-15 colon): > 100 µM | TGI (SNB-75 CNS): > 100 µM | TGI (K-562 leukemia): > 100 µM | TGI (RPMI-8226 leukemia): > 100 µM | TGI (COLO 205 colon): > 100 µM

COc1cc(/C=C/C(=O)O)ccc1O
TGI (SK-MEL-2 melanoma): > 100 µM | TGI (SR leukemia): > 100 µM | TGI (HOP-62 NSCLC): > 100 µM | TGI (MCF7 breast): > 100 µM | TGI (HCT-15 colon): > 100 µM | TGI (SNB-75 CNS): > 100 µM | TGI (K-562 leukemia): > 100 µM | TGI (RPMI-8226 leukemia): > 100 µM | TGI (COLO 205 colon): > 100 µM

O=C1NC(N/N=C/C(O)C(O)C(O)C(O)CO)=N/C1=C\c1cccs1 (stereo unspecified)
TGI (RXF 393 renal): > 100 µM | TGI (SK-MEL-2 melanoma): > 100 µM | TGI (HOP-62 NSCLC): > 100 µM | TGI (MCF7 breast): > 100 µM | TGI (HCT-15 colon): > 100 µM | TGI (SNB-75 CNS): > 100 µM | TGI (K-562 leukemia): > 100 µM | TGI (RPMI-8226 leukemia): > 100 µM | TGI (COLO 205 colon): > 100 µM
